Among the data in patent publication US11180462B2, “Microbiocidal oxadiazole derivatives” (SYNGENTA PARTICIPATIONS AG, priority 2015, dated 2021) are pest or weed control and inhibition of growth values, retold here.

In one test the test system is Puccinia recondita f. Sp. Tritici. In words: Fungicidal activity against Puccinia recondita f. sp. tritici / wheat / leaf disc preventative (brown rust). Type of test: in vivo. The following applies: foliar, 200 ppm in the applied formulation, wheat leaf segments, preventative, compared to untreated control leaf disks, read-out: disease control. As for the experimental part: Leaf disks or leaf segments of various plant species are cut from plants grown in a greenhouse. The cut leaf disks or segments are placed in multiwell plates (24-well format) onto water agar. The leaf disks are sprayed with a test solution before (preventative) or after (curative) inoculation. Compounds to be tested are prepared as DMSO solutions (max. 10 mg/ml) which are diluted to the appropriate concentration with 0.025% Tween20 just before spraying. The inoculated leaf disks or segments are incubated under defined conditions (temperature, relative humidity, light, etc.) according to the respective test system. A single evaluation of disease level is carried out 3 to 14 days after inoculation, depending on the pathosystem. Percent disease control relative to the untreated check leaf disks or segments is then calculated.
Fungicidal Activity Against Puccinia recondita f. Sp. Tritici/Wheat/Leaf Disc Preventative (Brown Rust)
Wheat leaf segments cv. Kanzler were placed on agar in multiwell plates (24-well format) and sprayed with the formulated test compound diluted in water. The leaf disks were inoculated with a spore suspension of the fungus 1 day after application. The inoculated leaf segments were incubated at 19° C. and 75% relative humidity (rh) under a light regime of 12 hours light/12 hours darkness in a climate cabinet and the activity of a compound was assessed as percent disease control compared to untreated when an appropriate level of disease damage appears in untreated check leaf segments (7 to 9 days after application).
The following compounds at 200 ppm in the applied formulation give at least 80% disease control in this test when compared to untreated control leaf disks under the same conditions, which show extensive disease development.
`O=C(Cc1ccc(C(F)(F)F)cc1)N(Cc1ccc(-c2noc(C(F)(F)F)n2)cc1)C1CC1` [Compound 1.140, N-cyclopropyl-N-[[4-[5-(trifluoromethyl)-1,2,4-oxadiazol-3-yl]phenyl]methyl]-2-[4-(trifluoromethyl)-phenyl]acetamide]: the pest or weed control at 200 ppm is at least 80%.
In the case of `COCCN(Cc1ccc(-c2noc(C(F)(F)F)n2)cc1)C(=O)C1(NC=O)CC1` [Compound 1.354, 1-formamido-N-(2-methoxyethyl)-N-[[4-[5-(trifluoromethyl)-1,2,4-oxadiazol-3-yl]phenyl]methyl]-cyclopropane-carboxamide], the pest or weed control at 200 ppm was at least 80%.
Take `COc1ccc(C2(C(=O)N(Cc3ccc(-c4noc(C(F)(F)F)n4)cc3)C3CC3)CC2)cc1` [Compound 1.143, N-cyclopropyl-1-(4-methoxyphenyl)-N-[[4-[5-(trifluoromethyl)-1,2,4-oxadiazol-3-yl]phenyl]methyl]-cyclopropane-carboxamide]: the pest or weed control at 200 ppm is at least 80%.
On to `C#CCOC(C(=O)N(Cc1ccc(-c2noc(C(F)(F)F)n2)cc1)C1CC1)c1ccc(Cl)cc1` (stereo not drawn) [Compound 1.141, 2-(4-chlorophenyl)-N-cyclopropyl-2-prop-2-ynoxy-N-[[4-[5-(trifluoromethyl)-1,2,4-oxadiazol-3-yl]phenyl]methyl]-acetamide], for which the pest or weed control at 200 ppm was at least 80%.

For the next test, the system named is Glomerella lagenarium (Colletotrichum lagenarium). As to the kind of experiment: Fungicidal activity against Glomerella lagenarium (Colletotrichum lagenarium) liquid culture / cucumber / preventative (anthracnose). Type of test: cell-based. The following applies: Colletotrichum orbiculare; 20 ppm in the applied formulation; liquid culture (PDB), growth inhibition measured photometrically after 3 to 4 days; compared to untreated control; read-out: disease control. An outline of the steps: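 Photometric read-out of fungal growth after 2–7 days, expressed as percent antifungal activity versus untreated check. Cryo-stored conidia in PDB; compound at 20 ppm; dark, 24 °C, 96% RH.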
`C=CC(=O)N(CCOC)Cc1ccc(-c2noc(C(F)(F)F)n2)cc1` [Compound 1.343, N-(2-methoxyethyl)-N-[[4-[5-(trifluoromethyl)-1,2,4-oxadiazol-3-yl]phenyl]methyl]prop-2-enamide]: the inhibition of growth at 20 ppm was at least 80%.
Regarding `O=C(C1CCCO1)N(Cc1ccc(-c2noc(C(F)(F)F)n2)cc1)OCc1ccc(Cl)cc1` (stereo not drawn) [Compound 1.557, N-[(4-chlorophenyl)-methoxy]-N-[[4-[5-(trifluoromethyl)-1,2,4-oxadiazol-3-yl]phenyl]methyl]-tetrahydrofuran-2-carboxamide], the inhibition of growth at 20 ppm is at least 80%.
Turning to `O=C(N(Cc1ccc(-c2noc(C(F)(F)F)n2)cc1)CC1CC1)C1(C(F)(F)F)CC1` [Compound 1.203, N-(cyclopropylmethyl)-1-(trifluoromethyl)-N-[[4-[5-(trifluoromethyl)-1,2,4-oxadiazol-3-yl]phenyl]methyl]-cyclopropane-carboxamide], the inhibition of growth at 20 ppm is at least 80%.
In the case of `CCC(C)N(Cc1ccc(-c2noc(C(F)(F)F)n2)cc1)C(=O)CC(C)C` (stereo not drawn) [Compound 1.380, 3-methyl-N-sec-butyl-N-[[4-[5-(trifluoromethyl)-1,2,4-oxadiazol-3-yl]phenyl]methyl]-butanamide], the inhibition of growth at 20 ppm is at least 80%.
On the same count and under the same terms, in the case of `CCCON(Cc1ccc(-c2noc(C(F)(F)F)n2)cc1)C(=O)CC(F)(F)F` [Compound 1.318, 3,3,3-trifluoro-N-propoxy-N-[[4-[5-(trifluoromethyl)-1,2,4-oxadiazol-3-yl]phenyl]methyl]-propanamide] it was at least 80%; in that of `O=C(C=CC(F)(F)F)N(Cc1ccc(-c2noc(C(F)(F)F)n2)cc1)CC1CCCO1` (stereo not drawn) [Compound 1.425, 4,4,4-trifluoro-N-(tetrahydrofuran-2-ylmethyl)-N-[[4-[5-(trifluoromethyl)-1,2,4-oxadiazol-3-yl]phenyl]methyl]-but-2-enamide], at least 80%.
For the molecule `CCCCC(=O)N(Cc1ccc(-c2noc(C(F)(F)F)n2)cc1)C(C)CC` (stereo not drawn) [Compound 1.409, N-sec-butyl-N-[[4-[5-(trifluoromethyl)-1,2,4-oxadiazol-3-yl]phenyl]methyl]-pentanamide], the inhibition of growth at 20 ppm was at least 80%.
For the molecule `CC(C)(C)CC(=O)N(Cc1ccc(-c2noc(C(F)(F)F)n2)cc1)C1CC1` [Compound 1.116, N-cyclopropy 1-3,3-dimethyl-N-[[4-[5-(trifluoromethyl)-1,2,4-oxadiazol-3-yl]phenyl]methyl]-butanamide], the inhibition of growth at 20 ppm was at least 80%.
